Experimental findings from ChEMBL document CHEMBL1201862, “PubChem BioAssay data set” (2004) are described below.

Structures are written as SMILES.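 Interpolation was linear, between the two tested concentrations surrounding the appropriate level; five concentrations were tested over 48 hours in 96-well plates. GI50 is the concentration that inhibits growth by half.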 The source made the active and inactive calls. No stated cut-off is given here; in the data, active = GI50 up to about 1.1 µM and inactive = higher.

Test systems include 786-0; COLO 205; EKVX; KM-20L2; KM12; LOX IMVI; Malme-3M; NCI-H522; OVCAR-3; RXF 393; SF-295; SK-OV-3; SN12C; TK-10; UACC-257; UO-31; Hs-578T; MCF7; MDA-N; MOLT-4.
Holding throughout (experiment): NCI tumour cell line growth inhibition, 48 h

`O=c1/c(=C/c2c(O)ccc3ccccc23)sc2nc3ccccc3n12`: the GI50 in the assay on 786-0, with COLO 205, with EKVX, with KM-20L2, in the assay with KM12 and in the assay with LOX IMVI was > 100 µM (inactive) throughout. In addition, the GI50 with Malme-3M, with NCI-H522, in the assay on OVCAR-3, in the assay with RXF 393, in the assay on SF-295 and in the assay on SK-OV-3 was > 100 µM (inactive) each time. For the same compound, the GI50 in the assay with SN12C, in the assay on TK-10, with UACC-257 and with UO-31 was > 100 µM (inactive) throughout.

For the compound `COc1cccc2ccc3c(c12)C(=O)OC31CCc2c(C)cccc21` (centres undefined), the GI50 with 786-0 is 28.8 µM (inactive); in the assay on COLO 205, 22.6 µM (inactive); in the assay with EKVX, 27.1 µM (inactive); in the assay with Hs-578T it was 38.5 µM (inactive); in the assay on KM-20L2, 15 µM (inactive); with KM12 it was 23.7 µM (inactive). Besides, the GI50 in the assay on LOX IMVI is 14.2 µM (inactive); in the assay on MCF7, 0.018 µM (active); in the assay with MDA-N it was 7.55 µM (inactive); in the assay on MOLT-4, 13.2 µM (inactive); in the assay on Malme-3M, 19.1 µM (inactive); in the assay with NCI-H522, 21.4 µM (inactive). Further, the GI50 in the assay on OVCAR-3 was 10.3 µM (inactive); with RXF 393, 8.97 µM (inactive); with SF-295 it was 9.95 µM (inactive); with SK-OV-3, > 46.5 µM (inactive); with SN12C it was 16.5 µM (inactive); in the assay on TK-10, 23.1 µM (inactive). Further, the GI50 is 23.4 µM (inactive) with UACC-257 and 9.16 µM (inactive) in the assay with UO-31.

As for `O=C1NCCS(=O)(=O)N2CCC[C@@H]12`, the GI50 in the assay with 786-0, in the assay on COLO 205, with EKVX, with KM-20L2, in the assay on KM12 and with LOX IMVI was > 100 µM (inactive) throughout. Also, the GI50 in the assay with MOLT-4, in the assay with Malme-3M, with NCI-H522, in the assay on OVCAR-3, with RXF 393 and in the assay on SF-295 was > 100 µM (inactive) each time. Besides, the GI50 with SK-OV-3, in the assay with SN12C, in the assay with TK-10, in the assay with UACC-257 and in the assay with UO-31 was > 100 µM (inactive) each time.

`COc1ccc2c(c1)CCN1C3=C(CCC3)C(=O)C[C@@H]21`: the GI50 with 786-0, with COLO 205, in the assay on EKVX, with KM-20L2, in the assay on KM12 and with LOX IMVI was > 100 µM (inactive) each time. Also, the GI50 with MOLT-4, in the assay with Malme-3M, with NCI-H522, in the assay with OVCAR-3, in the assay on RXF 393 and in the assay on SF-295 was > 100 µM (inactive) each time. Moreover, the GI50 with SK-OV-3 was > 100 µM (inactive); in the assay with SN12C, > 100 µM (inactive); with TK-10, 44.7 µM (inactive); in the assay on UACC-257 it was > 100 µM (inactive); with UO-31 it was 43.6 µM (inactive).

As to `O=C(Nc1ccc(Cl)cc1)c1cccc([N+](=O)[O-])c1O`, the GI50 is 3.88 µM (inactive) with 786-0; 2.91 µM (inactive) with COLO 205; 2.98 µM (inactive) in the assay on EKVX; 4.43 µM (inactive) in the assay with KM-20L2; 4.53 µM (inactive) in the assay on KM12; 3.74 µM (inactive) with LOX IMVI. For the same compound, the GI50 with MOLT-4 is 2.5 µM (inactive); with Malme-3M it was 1.37 µM (inactive); in the assay with NCI-H522, 1.98 µM (inactive); in the assay with OVCAR-3 it was 1.81 µM (inactive); with RXF 393 it was 1.78 µM (inactive); in the assay on SF-295, 3.29 µM (inactive). For the same compound, the GI50 in the assay on SK-OV-3 was 2.96 µM (inactive); in the assay on SN12C, 4.09 µM (inactive); in the assay on TK-10, 3.72 µM (inactive); in the assay with UACC-257, 2.24 µM (inactive); in the assay on UO-31, 1.98 µM (inactive).

For the compound `COc1ccc(/C(Cl)=C(/c2ccc(O)cc2)c2ccc(OCCN(C)C)cc2)cc1`, the GI50 in the assay on 786-0 is 6.03 µM (inactive); with COLO 205 it was 9.86 µM (inactive); in the assay on EKVX, 16.6 µM (inactive); in the assay on KM-20L2, 3.1 µM (inactive); with KM12 it was 9.14 µM (inactive); in the assay on LOX IMVI it was 2.96 µM (inactive). In addition, the GI50 is 4.62 µM (inactive) with Malme-3M; 12.1 µM (inactive) in the assay on NCI-H522; 15.3 µM (inactive) in the assay on OVCAR-3; 5.12 µM (inactive) in the assay on RXF 393; 4.78 µM (inactive) in the assay with SF-295; 13.1 µM (inactive) in the assay on SK-OV-3. The GI50 in the assay with SN12C was 12.9 µM (inactive); in the assay on TK-10, 19.7 µM (inactive); in the assay with UACC-257, 2.9 µM (inactive); with UO-31, 7.03 µM (inactive).

Take `COC(=O)C12C3C4C5(C(=O)OC)C(C1C35C(=O)N(C(C)C)C(C)C)C42C(=O)N(C(C)C)C(C)C` (centres undefined): the GI50 with 786-0 is > 50 µM (inactive); with COLO 205 it was > 50 µM (inactive); with EKVX, > 50 µM (inactive); in the assay on KM-20L2, > 50 µM (inactive); in the assay on KM12 it was > 50 µM (inactive); in the assay on LOX IMVI, > 27.1 µM (inactive). Also, the GI50 in the assay with MOLT-4 is > 50 µM (inactive); with Malme-3M, > 50 µM (inactive); with NCI-H522 it was > 47.2 µM (inactive); in the assay with OVCAR-3, > 50 µM (inactive); in the assay on RXF 393 it was > 50 µM (inactive); in the assay on SF-295 it was > 50 µM (inactive). The GI50 with SK-OV-3, in the assay on SN12C, with TK-10, in the assay with UACC-257 and in the assay with UO-31 was > 50 µM (inactive) each time.

On to `COc1cc2c(cc1O)[C@H](C)C(c1ccccc1OC)O2` (some centres undefined), for which the GI50 in the assay on 786-0 was 5.61 µM (inactive); in the assay with COLO 205, 6.97 µM (inactive); in the assay with EKVX, 6.87 µM (inactive); in the assay with KM-20L2, 5.07 µM (inactive); in the assay on KM12 it was 3.87 µM (inactive); in the assay with LOX IMVI, 4.67 µM (inactive). Further, the GI50 is 4.65 µM (inactive) in the assay on MOLT-4; 4.14 µM (inactive) with Malme-3M; 3.01 µM (inactive) in the assay on NCI-H522; 6.53 µM (inactive) in the assay on OVCAR-3; 10.9 µM (inactive) in the assay on RXF 393; 3.2 µM (inactive) in the assay on SF-295. Also, the GI50 in the assay on SK-OV-3 was 3.01 µM (inactive); in the assay on TK-10, 20.3 µM (inactive); in the assay with UACC-257 it was 18.2 µM (inactive); in the assay with UO-31, 8.57 µM (inactive).

With `O=C(Cc1ccccc1F)NC1=C(Cl)C(=O)c2ccccc2C1=O`, the GI50 with 786-0 is 3.09 µM (inactive); in the assay with COLO 205 it was 3.23 µM (inactive); with EKVX, 3.02 µM (inactive); with Hs-578T, 0.656 µM (active); in the assay on KM-20L2, 8.43 µM (inactive); with KM12 it was 0.524 µM (active). Besides, the GI50 is 1.75 µM (inactive) with LOX IMVI; 3.74 µM (inactive) in the assay on MCF7; 2.78 µM (inactive) in the assay on MDA-N; 1.06 µM (active) with MOLT-4; 1.35 µM (inactive) with Malme-3M; 0.29 µM (active) in the assay on NCI-H522. Moreover, the GI50 is 0.621 µM (active) with OVCAR-3; 0.249 µM (active) in the assay with RXF 393; 2.85 µM (inactive) with SF-295; 3.04 µM (inactive) in the assay on SK-OV-3; 3.18 µM (inactive) in the assay on SN12C; 2.4 µM (inactive) in the assay with TK-10. The GI50 in the assay on UO-31 was 0.723 µM (active).

As to `CCCN(CCC)C(=O)Cc1c2n(c3ccccc13)CCCc1ccccc1-2`, the GI50 with 786-0 was 16.9 µM (inactive); in the assay with COLO 205 it was 15.5 µM (inactive); with EKVX it was 15.1 µM (inactive); in the assay with KM-20L2, 14.4 µM (inactive); with KM12 it was 12.6 µM (inactive); in the assay on LOX IMVI it was 15.4 µM (inactive). Besides, the GI50 was 12.9 µM (inactive) with MOLT-4; 13.9 µM (inactive) in the assay with Malme-3M; 12.6 µM (inactive) in the assay on NCI-H522; 16 µM (inactive) in the assay with OVCAR-3; 10.4 µM (inactive) in the assay with RXF 393; 10.6 µM (inactive) with SF-295. Moreover, the GI50 with SK-OV-3 is 15.2 µM (inactive); in the assay with SN12C, 15.5 µM (inactive); in the assay with TK-10 it was 15.7 µM (inactive); with UACC-257, 13.9 µM (inactive); in the assay on UO-31, 14.1 µM (inactive).

For the compound `O=c1c(O)c(-c2ccc(O)c(O)c2)oc2cc(O)cc(O)c12` [QUERCETIN], the GI50 in the assay with 786-0 is 59.8 µM (inactive); in the assay on COLO 205, 33.6 µM (inactive); in the assay with EKVX, 41.2 µM (inactive); with KM-20L2, 83.6 µM (inactive); with KM12 it was 42.9 µM (inactive); in the assay on LOX IMVI, 18.9 µM (inactive). For the same compound, the GI50 with MOLT-4 was 76.9 µM (inactive); with Malme-3M it was > 100 µM (inactive); in the assay with NCI-H522 it was 84.3 µM (inactive); in the assay on OVCAR-3, > 100 µM (inactive); in the assay with RXF 393, 55.7 µM (inactive); with SF-295, 50.7 µM (inactive). Also, the GI50 in the assay on SK-OV-3 is 52.7 µM (inactive); in the assay with SN12C, > 100 µM (inactive); in the assay with TK-10 it was > 100 µM (inactive); with UACC-257, > 100 µM (inactive); with UO-31 it was 77.1 µM (inactive).
